Format in all cases: cell-based
One series concerns HIV-1IIIB. Briefly: Time of compound addition in HeLa-CD4-LTR-β-Gal cells. The conditions noted are these: time of compound addition relative to virus addition. The method, then: HeLa-CD4-LTR-β-Gal cells are seeded at a density of 1×10^4 cells/well in a volume of 100 μL 24 hours prior to assay initiation and incubated at 37° C./5% CO2. Following the incubation compound is serially diluted at the specified concentrations and were added to the cells in triplicate at timepoints of −30 minutes, 0, 1, 2, 4, 8 and 24 hours pre- or post-virus addition in a volume of 100 μL. HIV-1IIIB is added to the cells at a pre-determined titer. The cultures are incubated at 37° C./5% CO2 for 48 hours at which time efficacy is evaluated using a chemiluminescent substrate (Gal-Screen™, ThermoFisher Scientific, Waltham, Mass.) and toxicity (three timepoints of 0, 4 and 24 hours) evaluated using the tetrazolium dye XTT.

A further series deals with Ca Ski (Cervical) cells. Briefly: Toxicity to Ca Ski cells (XTT). The conditions noted are these: exposure 24 h. The method, then:
(§1) TC50 values for the test materials are derived by measuring the reduction of the tetrazolium dye XTT (2,3-bis(2-methoxy-4-nitro-5-sulfophenyl)-5-[(phenylamino)carbonyl]-2H-tetrazolium hydroxide). XTT in metabolically active cells is metabolized by the mitochondrial enzyme Nicotinamide adenine dinucleotide phosphate oxidase (“NADPH”) to a soluble formazan product. XTT solution is prepared daily as a stock of 1 mg/ml in RPMI-1640 without additives. Phenazine methosulfate (PMS) solution is prepared at 0.15 mg/ml in DPBS and stored in the dark at −20° C. XTT/PMS stock is prepared immediately before use by adding 40 μL of PMS per ml of XTT solution. […] of XTT/PMS is added to each well of the plate and the plate incubated for 4 hours at 37° C. The 4 hour incubation has been empirically determined to be within the linear response range for XTT dye reduction with the indicated numbers of cells for each assay. The plates are sealed and inverted several times to mix the soluble formazan product and the plate is read at 450 nm (650 nm reference wavelength) with a Molecular Devices SpectraMax Plus 384 96 well plate format spectrophotometer.
(§2) Twenty-four hours prior to compound exposure, 100 μL of cells are plated at 5×10^4 cells per well in a flat-bottomed plate and. […] The plates are incubated at 5% CO2/37° C. for an additional 24 hours and then evaluated using XTT as described above.
On the technique in general: Tetrazolium dyes change colour on reduction, which living cells bring about.

The subject of another series is ME180 (Cervical) cells. Briefly: Toxicity to ME180 cells (XTT). The conditions noted are these: exposure 24 h. On the procedure:
as §1, §2

Series [1] relates to Vaginal Ectocervical Tissues. Briefly: Toxicity to vaginal ectocervical tissue (MTT). The conditions noted are these: exposure 24 h. The method, then:
On the day of the assay, the MatTek assay media is warmed and 900 μL added to each well of a 6-well plate. One hour prior to dosing, the epivaginal tissues are removed from the refrigerator and placed in the 6-well plate and the plate then incubated for 1 hour at 37° C./5% CO2. Following the incubation the media is removed from the 6 well plate and 900 μL of fresh media added. One-hundred microliters (100 μL) of each concentration is added in duplicate to the epivaginal tissue. The plate is then incubated for an additional 24 hours at 37° C./5% CO2. One hour prior to the end of the incubation, 1 mg/mL (3-(4,5-Dimethylthiazol-2-yl)-2,5-diphenyltetrazolium bromide (hereinafter, “MTT” available from Invitrogen of Carlsbad, Calif.) in DMEM is prepared. Fifteen minutes prior to the end of the incubation 300 μL of MTT is added to each well of a 24-well plate. Following the incubation, residual liquid is removed from the tissue and then gently rinsed two times with PBS. Each epivaginal tissue insert is then transferred to an individual well of the 24-well plate containing the MTT solution. The plate is then incubated for 3 hours at 37° C./5% CO2. […] The optical density of each sample is determined at 570 nm with a background of 650 nm. The % viability is determined to be 100×[OD(sample)/OD(negative control)]. […]

Data on two compounds can be found in patent US20210330698A1, “METHODS AND COMPOSITIONS FOR INHIBITING ENVELOPED VIRUSES USING LOW MOLECULAR WEIGHT HYDROPHOBICALLY MODIFIED POLYMERS” (Johnson & Johnson Consumer Inc., priority 2020, published 2021).

`O=C1Nc2ccc(Cl)cc2[C@@](C#CC2CC2)(C(F)(F)F)O1` [Efavirenz]: the “Time in which Antiviral Activity is Lost” value in the series on HIV-1IIIB was in the range of 4 to 8 h.
As for Nonoxynol-9 [Embodiment N-9], the toxic concentration in the series with Ca Ski (Cervical) cells was 36.31 µg/mL; in the series with ME180 (Cervical) cells it was 41.83 µg/mL; in series [1] it was 100 to 1000 µg/mL.
